Consider five molecules from patent US10294202B2, “Pyrrolidinones as herbicides” (FMC Corporation, priority 2013, dated 2019).

SMILES strings stand for the structures. Like-named read-outs stand apart in the source and are kept apart here.

The subject of one experiment is pigweed. The experiment can be described thus: Test A pre-/postemergence herbicide test. As to conditions: for Pigweed plant response rating: Preemergence, visual rating on 0 to 100 scale (0 no effect, 100 complete control); for pest or weed control at 125 g/ha / pest or weed control at 500 g/ha: Amaranthus retroflexus, 240 h, read-out: Plant response rating, Pigweed. In kind it is in vivo, Amaranthus retroflexus. The method, boiled down:
(§1)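 Visual injury ratings, 0 = no effect, 100 = complete control, taken ~10 days after treatment against untreated greenhouse controls. Preemergence: directed soil spray onto seeded loam/sand pots. Postemergence: spray onto plants at one- to two-leaf stage, 2–10 cm tall.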

For experiment [1], the system named is barnyardgrass. As to the kind of experiment: Test A pre-/postemergence herbicide test. In kind it is in vivo, Echinochloa crus-galli. The following applies: for Barnyardgrass plant response rating: Preemergence, visual rating on 0 to 100 scale (0 no effect, 100 complete control); for pest or weed control at 125 g/ha / pest or weed control at 500 g/ha: Echinochloa crus-galli, 240 h, read-out: Plant response rating, Barnyardgrass. The method, boiled down: as §1

In the next experiment the test system is waterhemp. As to the kind of experiment: Test C pre-/postemergence herbicide test. As to conditions: Preemergence. It counts as in vivo, Amaranthus rudis. From the text: (§2) Seeds of plant species selected from blackgrass (Alopecurus myosuroides), ryegrass, Italian (Italian ryegrass, Lolium multiflorum), wheat (winter wheat, Triticum aestivum), galium (catchweed bedstraw, Galium aparine), corn (Zea mays), crabgrass, large (large crabgrass, Digitaria sanguinalis), foxtail, giant (giant foxtail, Setaria faberii), johnsongrass (Sorghum halepense), lambsquarters (Chenopodium album), morningglory (Ipomoea coccinea), nutsedge, yellow (yellow nutsedge, Cyperus esculentus), pigweed (Amaranthus retroflexus), ragweed (common ragweed, Ambrosia elatior), soybean (Glycine max), barnyardgrass (Echinochloa crus-galli), oilseed rape (Brassica napus), waterhemp (common waterhemp, Amaranthus rudis), kochia (Kochia scoparia), oat, wild (wild oat, Avena fatua), surinam grass (Brachiaria decumbens), foxtail, green (green foxtail, Setaria viridis), goosegrass (Eleusine indica), bromegrass, downy (downy bromegrass, Bromus tectorum), nightshade (eastern black nightshade, Solanum ptycanthum), cocklebur (common cocklebur, Xanthium strumarium), cupgrass, woolly (woolly cupgrass, Eriochloa villosa), bermudagrass (Cynodon dactylon), sunflower, (common oilseed sunflower, Helianthus annuus), Russian thistle (Salsola kali) and velvetleaf (Abutilon theophrasti) were planted into a blend of loam soil and sand and treated preemergence with test chemicals formulated in a non-phytotoxic solvent mixture which included a surfactant. At the same time, plants selected from these crop and weed species and also barley (winter barley, Hordeum vulgare), […]), chickweed (common chickweed, Stellaria media), deadnettle (henbit deadnettle, Lamium amplexicaule), and canarygrass (littleseed canarygrass, Phalaris minor) were planted in pots containing Redi-Earth® planting medium (Scotts Company, 14111 Scottslawn Road, Marysville, Ohio 43041) comprising spaghnum peat moss, vermiculite, wetting agent and starter nutrients and treated with postemergence applications of test chemicals formulated in the same manner. Plants ranged in height from 2 to 18 cm (1- to 4-leaf stage) for postemergence treatments. Treated plants and controls were maintained in a greenhouse for 13 to 15 days, after which time all species were compared to controls and visually evaluated. Plant response ratings, summarized in Table C, are based on a scale of 0 to 100 where 0 is no effect and 100 is complete control. A dash (-) response means no test result.

Another experiment concerns soybean. As to the kind of experiment: Test C pre-/postemergence herbicide test. In kind it is in vivo, Glycine max. As to conditions: Preemergence.
Excerpt: as §2

A further experiment has as its system ryegrass, Italian. As to the kind of experiment: Test C pre-/postemergence herbicide test. As to conditions: Preemergence. In kind it is in vivo, Lolium multiflorum.
Excerpt: as §2

A further experiment relates to nutsedge, yellow. The experiment can be described thus: Test C pre-/postemergence herbicide test. It counts as in vivo, Cyperus esculentus. As to conditions: Preemergence.
Excerpt: as §2

Experiment [2] relates to barnyardgrass. As to the kind of experiment: Test B flooded paddy test. It counts as in vivo, Echinochloa crus-galli. The following applies: 250 g ai/ha, Flood; scale of 0 to 100 where 0 is no effect and 100 is complete control. The method, boiled down:
(§3)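 In-water application to pots flooded 3 cm deep, plants at 2-leaf stage. Held in greenhouse 13–15 days at constant flood depth. Scored 0–100 by eye against controls.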

In experiment [3] the test system is barnyardgrass. The experiment can be described thus: Test C pre-/postemergence herbicide test. In kind it is in vivo, Echinochloa crus-galli. The following applies: Preemergence.
Excerpt: as §2

For another experiment, the system named is rice. The experiment can be described thus: Test B flooded paddy test. As to conditions: 250 g ai/ha, Flood; scale of 0 to 100 where 0 is no effect and 100 is complete control. In kind it is in vivo, Oryza sativa. A digest of the protocol:
as §3

For a further experiment, the system named is ducksalad. As to the kind of experiment: Test B flooded paddy test. It counts as in vivo, Heteranthera limosa. The following applies: 250 g ai/ha, Flood; scale of 0 to 100 where 0 is no effect and 100 is complete control. A digest of the protocol: as §3
Another experiment relates to morningglory. The experiment can be described thus: Test C pre-/postemergence herbicide test. It counts as in vivo, Ipomoea coccinea. The following applies: Preemergence.
Excerpt: as §2

Where [4] appears, read: Postemergence, 500 g ai/ha, 0 to 100 scale (0 no effect, 100 complete control).
The mark [5] stands for this setting: preemergence, 500 g ai/ha, 0 to 100 scale.
Where [6] appears, read: Postemergence, 125 g ai/ha, 0 to 100 scale, 0 no effect, 100 complete control.
[7] abbreviates: preemergence, 500 g ai/ha, 0 to 100 scale (0 no effect, 100 complete control).
Where [8] appears, read: 31 g ai/ha, scale 0 to 100, 0 is no effect and 100 is complete control.
Setting [9] is: 125 g ai/ha, scale 0 to 100 (0 no effect, 100 complete control).
The mark [10] stands for this setting: 125 g ai/ha, visual rating, 0 to 100 scale, 0 no effect, 100 complete control, approximately 10 days, preemergence.
[11] abbreviates: Postemergence, 125 g ai/ha, 0 to 100 scale, 0 is no effect, 100 is complete control.
[12] abbreviates: preemergence, 500 g ai/ha, 0 to 100 scale, 0 is no effect and 100 is complete control.
[13] abbreviates: post-emergence, Postemergence, 125 g ai/ha, 0 to 100 scale, 0 no effect, 100 complete control.
Where [14] appears, read: post-emergence, Postemergence, 500 g ai/ha, 0 to 100 scale (0 no effect, 100 complete control).
Where [15] appears, read: pre-emergence, preemergence, 500 g ai/ha, 0 to 100 scale.
Where [16] appears, read: pre-emergence, preemergence, 500 g ai/ha, 0 to 100 scale (0 no effect, 100 complete control).

`O=C1NCC(c2ccc(F)c(F)c2)C1C(=O)Nc1ccccc1C(F)(F)F` (racemic) [Compound 6]: the “Plant response rating, Pigweed” value in the experiment with pigweed (setting [4]) turned out to be 10; in the experiment with pigweed (setting [5]), 0. In the experiment with pigweed (125 g ai/ha), the “Pigweed plant response rating” value is recorded as 0. Also, the “Plant response rating, Barnyardgrass” value in the experiment on barnyardgrass [1] (setting [6]) is listed as 40; in the experiment on barnyardgrass [1] (setting [4]) it was 80; in the experiment with barnyardgrass [1] (setting [7]), 80. For the same molecule, in the experiment with barnyardgrass [1] (125 g ai/ha), the “Barnyardgrass plant response rating” value was 50.
Turning to `O=C1NCC(c2ccc(F)c(C(F)(F)F)c2)C1C(=O)Nc1cccc(F)c1F` (racemic) [Compound 77], the “Waterhemp plant response rating” value in the experiment with waterhemp (setting [8]) is 40. Moreover, the “Plant response rating, Waterhemp” value in the experiment on waterhemp (62 g ai/ha, scale 0 to 100) was found to be 40; in the experiment with waterhemp (setting [9]), 70. The “Plant response rating (scale of 0 to 100), Waterhemp” value in the experiment on waterhemp (250 g ai/ha) was 85. The results for the “Plant response rating, Pigweed” value in the experiment with pigweed (setting [6]), with pigweed (setting [4]) and in the experiment on pigweed (setting [5]) were 40, 50 and 70, respectively. In addition, the “Pigweed plant response rating” value in the experiment on pigweed (125 g ai/ha) was 40. The “Soybean plant response rating” value in the experiment with soybean (setting [8]) was determined as 0. For the same molecule, the “Plant response rating, Soybean” value with soybean (62 g ai/ha, scale 0 to 100) is recorded as 0; in the experiment on soybean (setting [9]), 0. In addition, in the experiment on soybean (250 g ai/ha), the “Plant response rating (scale of 0 to 100), Soybean” value is 0. The “Ryegrass, Italian plant response rating” value in the experiment on ryegrass, Italian (setting [8]) amounted to 40. Further, the “Plant response rating, Ryegrass, Italian” value was 40 in the experiment on ryegrass, Italian (62 g ai/ha, scale 0 to 100) and 40 in the experiment with ryegrass, Italian (setting [9]). In the experiment on ryegrass, Italian (250 g ai/ha), the “Plant response rating (scale of 0 to 100), Ryegrass, Italian” value turned out to be 45. The “Nutsedge, Yellow plant response rating” value in the experiment with nutsedge, yellow (setting [8]) was 0. The “Plant response rating, Nutsedge, Yellow” value was found to be 0 with nutsedge, yellow (62 g ai/ha, scale 0 to 100) and 0 in the experiment with nutsedge, yellow (setting [9]). Moreover, in the experiment on nutsedge, yellow (250 g ai/ha), the “Plant response rating (scale of 0 to 100), Nutsedge, Yellow” value is listed as 0. The “Plant response rating, Barnyardgrass” value is listed as 20 in the experiment with barnyardgrass [2]; 95 in the experiment with barnyardgrass [3] (62 g ai/ha, scale 0 to 100); 95 in the experiment on barnyardgrass [3] (setting [9]); 70 with barnyardgrass [1] (setting [6]); 80 with barnyardgrass [1] (setting [4]); 90 in the experiment on barnyardgrass [1] (setting [7]). For the same molecule, the “Barnyardgrass plant response rating” value with barnyardgrass [3] (setting [8]) is given as 90; in the experiment with barnyardgrass [1] (125 g ai/ha), 80. For the same molecule, in the experiment with barnyardgrass [3] (250 g ai/ha), the “Plant response rating (scale of 0 to 100; 0 is no effect, 100 is complete control), Barnyardgrass” value stood at 95. Moreover, in the experiment on rice, the “Plant response rating, Rice” value is given as 10. Besides, in the experiment on ducksalad, the “Plant response rating, Ducksalad” value is recorded as 100. Further, the “Morningglory plant response rating” value in the experiment with morningglory (setting [8]) turned out to be 0. The “Plant response rating, Morningglory” value in the experiment on morningglory (62 g ai/ha, scale 0 to 100) was 0; in the experiment with morningglory (setting [9]), 0. Moreover, the “Plant response rating (scale of 0 to 100), Morningglory” value in the experiment with morningglory (250 g ai/ha) came out at 0.
As for `O=C1NCC(c2cccc(C(F)F)c2)C1C(=O)Nc1ccccc1F` (racemic) [Compound 210], the entries for the “Plant response rating, Pigweed” value in the experiment on pigweed (setting [10]), with pigweed (setting [11]) and in the experiment with pigweed (setting [12]) were 0, 0 and 50, respectively. Further, the “Pigweed plant response rating (0 to 100 scale, 0 is no effect, 100 is complete control)” value with pigweed (Postemergence, 500 g ai/ha) turned out to be 20. Further, the “Plant response rating, Barnyardgrass” value in the experiment with barnyardgrass [1] (setting [10]) was 60; in the experiment on barnyardgrass [1] (setting [11]) it was 80; with barnyardgrass [1] (setting [12]), 90. Besides, in the experiment on barnyardgrass [1] (Postemergence, 500 g ai/ha), the “Barnyardgrass plant response rating (0 to 100 scale, 0 is no effect, 100 is complete control)” value was determined as 90.
In the case of `O=C1NCC(Br)(c2ccccc2)C1C(=O)Nc1ccccc1F` (stereo not drawn) [Compound 92, 4-bromo-N-(2-fluorophenyl)-2-oxo-4-phenyl-3-pyrrolidinecarboxamide], the figures for the pest or weed control at 125 g/ha with pigweed (setting [13]) and in the experiment on barnyardgrass [1] (setting [13]) were 0% and 20%, respectively. Besides, the pest or weed control at 500 g/ha came out at 0% with pigweed (setting [14]), 0% in the experiment on pigweed (setting [15]), 70% in the experiment on barnyardgrass [1] (setting [14]) and 90% with barnyardgrass [1] (setting [16]). Further, the “Pigweed plant response rating” value with pigweed (125 g ai/ha) was 0. Moreover, the “Barnyardgrass plant response rating” value in the experiment on barnyardgrass [1] (125 g ai/ha) is reported as 60.
Consider `O=C1NCC(c2ccccc2)C1(Br)C(=O)Nc1ccccc1F` (stereo not drawn) [Compound 93, 3-bromo-N-(2-fluorophenyl)-2-oxo-4-phenyl-3-pyrrolidinecarboxamide], for which the pest or weed control at 125 g/ha in the experiment with pigweed (setting [13]) was found to be 0%; with barnyardgrass [1] (setting [13]), 10%. Also, the pest or weed control at 500 g/ha in the experiment with pigweed (setting [14]) turned out to be 0%; in the experiment on pigweed (setting [15]), 0%; with barnyardgrass [1] (setting [14]), 60%; with barnyardgrass [1] (setting [16]), 90%. For the same molecule, the “Pigweed plant response rating” value with pigweed (125 g ai/ha) stood at 0. Further, the “Barnyardgrass plant response rating” value with barnyardgrass [1] (125 g ai/ha) is 50.
